# Reference: article PMC9127186, “Molecular Basis Underlying Hepatobiliary and Renal Excretion of Phenolic Acids of Salvia miltiorrhiza Roots (Danshen)” (Frontiers in Pharmacology, 2022)
# T1: human OAT2 (Homo sapiens, UniProt Q9Y694)
# T1 sequence (Q9Y694 1-546 isoform Q9Y694-2): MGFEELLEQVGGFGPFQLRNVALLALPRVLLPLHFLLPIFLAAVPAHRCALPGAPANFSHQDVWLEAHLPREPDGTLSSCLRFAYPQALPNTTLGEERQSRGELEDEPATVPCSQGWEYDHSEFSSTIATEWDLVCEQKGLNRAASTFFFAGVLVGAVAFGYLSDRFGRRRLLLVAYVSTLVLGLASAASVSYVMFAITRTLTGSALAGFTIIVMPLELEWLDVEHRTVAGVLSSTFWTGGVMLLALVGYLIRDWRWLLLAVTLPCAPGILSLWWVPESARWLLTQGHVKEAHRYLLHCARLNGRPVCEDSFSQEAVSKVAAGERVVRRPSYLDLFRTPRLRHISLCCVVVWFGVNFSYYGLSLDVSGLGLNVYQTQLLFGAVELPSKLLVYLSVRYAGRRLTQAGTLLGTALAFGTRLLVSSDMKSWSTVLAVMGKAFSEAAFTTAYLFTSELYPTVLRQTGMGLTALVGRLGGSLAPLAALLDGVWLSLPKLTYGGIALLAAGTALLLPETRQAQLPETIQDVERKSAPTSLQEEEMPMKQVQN
# T2: rat Oat2 (Rattus norvegicus, UniProt Q5RLM2)
# T2 sequence (Q5RLM2 1-535): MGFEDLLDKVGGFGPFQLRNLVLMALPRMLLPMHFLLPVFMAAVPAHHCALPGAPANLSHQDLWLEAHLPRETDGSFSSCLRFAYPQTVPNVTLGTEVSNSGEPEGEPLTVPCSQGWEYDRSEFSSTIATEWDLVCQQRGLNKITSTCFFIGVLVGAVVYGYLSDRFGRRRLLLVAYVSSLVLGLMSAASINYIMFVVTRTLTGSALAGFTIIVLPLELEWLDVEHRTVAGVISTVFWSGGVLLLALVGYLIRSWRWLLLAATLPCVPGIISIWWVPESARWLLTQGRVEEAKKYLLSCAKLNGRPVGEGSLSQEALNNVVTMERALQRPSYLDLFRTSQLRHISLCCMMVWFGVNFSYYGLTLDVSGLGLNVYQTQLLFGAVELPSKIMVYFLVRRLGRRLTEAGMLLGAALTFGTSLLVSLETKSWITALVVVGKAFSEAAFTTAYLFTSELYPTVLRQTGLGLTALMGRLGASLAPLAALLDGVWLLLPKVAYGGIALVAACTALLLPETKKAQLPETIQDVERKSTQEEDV
# T3: human OATP1B1 (Homo sapiens, UniProt Q9Y6L6)
# T3 sequence (Q9Y6L6 1-691): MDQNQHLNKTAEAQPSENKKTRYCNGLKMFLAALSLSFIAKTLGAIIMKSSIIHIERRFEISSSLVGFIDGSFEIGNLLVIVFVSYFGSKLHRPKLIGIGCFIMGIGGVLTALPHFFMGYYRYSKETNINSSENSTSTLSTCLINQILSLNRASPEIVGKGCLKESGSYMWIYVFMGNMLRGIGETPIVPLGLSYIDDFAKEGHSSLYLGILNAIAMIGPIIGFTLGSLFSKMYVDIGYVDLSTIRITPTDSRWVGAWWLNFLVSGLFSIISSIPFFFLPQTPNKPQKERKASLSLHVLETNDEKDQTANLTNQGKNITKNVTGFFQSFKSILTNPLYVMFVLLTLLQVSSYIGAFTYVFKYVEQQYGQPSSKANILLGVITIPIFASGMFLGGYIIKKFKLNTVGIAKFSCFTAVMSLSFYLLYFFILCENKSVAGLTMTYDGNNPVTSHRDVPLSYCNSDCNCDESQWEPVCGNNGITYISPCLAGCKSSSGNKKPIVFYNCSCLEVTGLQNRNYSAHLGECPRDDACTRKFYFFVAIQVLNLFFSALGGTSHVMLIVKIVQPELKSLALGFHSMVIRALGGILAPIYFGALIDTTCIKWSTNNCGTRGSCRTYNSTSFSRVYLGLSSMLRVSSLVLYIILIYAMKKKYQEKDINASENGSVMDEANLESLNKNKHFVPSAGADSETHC
# T4: OATP1B3 (Homo sapiens, UniProt Q9NPD5)
# T4 sequence (Q9NPD5 1-702): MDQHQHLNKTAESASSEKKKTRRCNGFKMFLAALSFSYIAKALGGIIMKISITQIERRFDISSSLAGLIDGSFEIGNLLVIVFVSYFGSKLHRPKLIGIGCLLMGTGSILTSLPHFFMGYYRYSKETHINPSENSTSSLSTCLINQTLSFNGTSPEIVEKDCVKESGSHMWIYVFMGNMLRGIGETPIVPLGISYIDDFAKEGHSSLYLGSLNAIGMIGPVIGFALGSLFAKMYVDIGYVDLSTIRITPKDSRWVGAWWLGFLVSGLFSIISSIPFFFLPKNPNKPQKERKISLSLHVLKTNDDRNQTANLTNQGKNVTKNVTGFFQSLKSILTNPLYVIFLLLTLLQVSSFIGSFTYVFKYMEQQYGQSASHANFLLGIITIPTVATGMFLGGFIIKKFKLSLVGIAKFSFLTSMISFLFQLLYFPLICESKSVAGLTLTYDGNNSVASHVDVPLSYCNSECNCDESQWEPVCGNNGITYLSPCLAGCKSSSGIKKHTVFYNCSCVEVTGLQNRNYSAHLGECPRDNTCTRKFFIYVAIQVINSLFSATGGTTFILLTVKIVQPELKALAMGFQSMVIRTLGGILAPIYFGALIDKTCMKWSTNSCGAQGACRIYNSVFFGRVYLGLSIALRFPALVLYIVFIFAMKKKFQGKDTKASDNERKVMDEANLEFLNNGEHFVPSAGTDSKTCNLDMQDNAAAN
# T5: rat Oatp1b2 (Rattus norvegicus, UniProt Q9QZX8)
# T5 sequence (Q9QZX8 1-687): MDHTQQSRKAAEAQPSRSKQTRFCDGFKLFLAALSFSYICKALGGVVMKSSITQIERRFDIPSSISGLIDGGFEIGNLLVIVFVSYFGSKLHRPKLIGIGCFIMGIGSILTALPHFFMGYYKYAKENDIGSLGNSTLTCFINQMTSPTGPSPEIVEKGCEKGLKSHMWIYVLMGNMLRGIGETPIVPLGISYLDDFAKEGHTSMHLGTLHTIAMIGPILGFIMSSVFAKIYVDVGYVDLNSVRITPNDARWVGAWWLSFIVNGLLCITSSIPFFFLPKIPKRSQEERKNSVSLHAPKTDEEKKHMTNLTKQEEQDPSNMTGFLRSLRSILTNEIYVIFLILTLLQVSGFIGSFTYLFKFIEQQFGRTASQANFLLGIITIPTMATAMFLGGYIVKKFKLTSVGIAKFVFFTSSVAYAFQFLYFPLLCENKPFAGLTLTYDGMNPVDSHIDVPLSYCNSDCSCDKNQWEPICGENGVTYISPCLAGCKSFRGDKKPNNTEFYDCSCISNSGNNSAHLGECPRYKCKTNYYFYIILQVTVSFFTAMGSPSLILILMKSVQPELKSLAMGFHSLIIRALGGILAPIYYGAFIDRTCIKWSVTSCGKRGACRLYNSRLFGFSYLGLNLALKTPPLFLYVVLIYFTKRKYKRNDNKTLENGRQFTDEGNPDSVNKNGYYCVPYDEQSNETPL
# Key:
# human OAT2 = target: T1, human OAT2; assay: Cellular transport assay, HEK-293 cells expressing human OAT2; details: positive substrate 20 μM, 10 min; human OAT2
# Protocol: (§1) Briefly, HEK-293 cells were grown, at 37°C and 5% CO2, in Dulbecco’s modified Eagle’s medium, which was fortified with 10% fetal bovine serum, 1% minimal essential medium nonessential amino acids, and 1% antibiotic-antimycotic solution. A day before transfection, cells were seeded onto 24-well poly-D-lysine-coated plates at a density of 2 × 10^5 cells per well. After incubation at 37°C and 5% CO2 for 24 h, the expression plasmid and the empty vector were introduced separately into the HEK293 cells with Lipofectamine 2000 transfection reagent (Invitrogen, Carlsbad, CA, United States), according to the manufacturer’s protocol to yield transporter-expressing cells and mock cells, respectively.
# (§2) Transport studies were performed 48 h after the transfection. […] Differential uptake between the transfected cells and mock cells was defined as net transport ratio (TransportTC/TransportMC ratio), where TransportTC and TransportMC are the transport rates of a test Danshen compound into transfected and mock cells, respectively. […] The determination was performed under linear uptake conditions by incubation for 5 min. Table 1 summarizes the final concentrations of the test Danshen compounds for different transporters. All the incubation samples were analyzed by liquid chromatography/mass spectrometry.
# (§3) GraFit software (version 5.0; Erithacus Software Ltd, Surrey, United Kingdom) was used to determine the K m and V max values by nonlinear regression analysis of initial transport rates as a function of substrate concentration.
# rat Oat2 = target: T2, rat Oat2; assay: Cellular transport assay, HEK-293 cells expressing rat Oat2; details: positive substrate 20 μM, 10 min; rat Oat2
# Protocol: as §1, §2, §3
# human MRP3 = human MRP3 (Homo sapiens, UniProt O15438); assay: Vesicular transport assay, inside-out membrane vesicles expressing human MRP3; details: positive substrate 20 μM, 10 min; human MRP3
# Protocol: (§4) Inside-out membrane vesicles (5 mg protein/mL), prepared from insect cells expressing human multidrug resistance-associated protein (MRP) 2, MRP3, MRP4, breast cancer resistance protein (BCRP), bile salt export pump (BSEP), and multidrug resistance protein (MDR) one and rat Mrp2, Mrp4, Bcrp, and Bsep, and vesicles (5 mg protein/mL; prepared from the insect cells expressing no ABC transporter; serving as negative control) were obtained from Genomembrane (Kanazawa, Japan).
# (§5) The test Danshen compounds at 100 µM final concentration were separately incubated with the membrane vesicles for 10 min. Buffer C (50 mM MOPS-tris, 70 mM KCl, 7.5 mM MgCl2, pH 7.0) was used for preincubation and incubation, while buffer D (40 mM MOPS-tris, 70 mM KCl, pH 7.0) was used for vesicle washing. The transport rate (pmol/mg protein/min) of the test Danshen compound was calculated using Equation (2): Transport=(CV×VV)/T/WV (2) where C V, V V, T, and W V represent concentration of the compound in vesicular lysates supernatant (μM), volume of the lysates (μL), incubation time (10 min), and amount of vesicle protein amount per well (0.05 mg), respectively. Differential transport of the test Danshen compound between ATP-containing vesicles and AMP-containing vesicles was defined as net transport ratio (TransportATP/TransportAMP ratio). […] All the incubation samples were analyzed by liquid chromatography/mass spectrometry.
# rat Mrp2 = rat Mrp2 (Rattus norvegicus, UniProt Q63120); assay: Vesicular transport assay, inside-out membrane vesicles expressing rat Mrp2; details: positive substrate 20 μM, 10 min; rat Mrp2
# rat Mrp2, sequence (Q63120 whole entry): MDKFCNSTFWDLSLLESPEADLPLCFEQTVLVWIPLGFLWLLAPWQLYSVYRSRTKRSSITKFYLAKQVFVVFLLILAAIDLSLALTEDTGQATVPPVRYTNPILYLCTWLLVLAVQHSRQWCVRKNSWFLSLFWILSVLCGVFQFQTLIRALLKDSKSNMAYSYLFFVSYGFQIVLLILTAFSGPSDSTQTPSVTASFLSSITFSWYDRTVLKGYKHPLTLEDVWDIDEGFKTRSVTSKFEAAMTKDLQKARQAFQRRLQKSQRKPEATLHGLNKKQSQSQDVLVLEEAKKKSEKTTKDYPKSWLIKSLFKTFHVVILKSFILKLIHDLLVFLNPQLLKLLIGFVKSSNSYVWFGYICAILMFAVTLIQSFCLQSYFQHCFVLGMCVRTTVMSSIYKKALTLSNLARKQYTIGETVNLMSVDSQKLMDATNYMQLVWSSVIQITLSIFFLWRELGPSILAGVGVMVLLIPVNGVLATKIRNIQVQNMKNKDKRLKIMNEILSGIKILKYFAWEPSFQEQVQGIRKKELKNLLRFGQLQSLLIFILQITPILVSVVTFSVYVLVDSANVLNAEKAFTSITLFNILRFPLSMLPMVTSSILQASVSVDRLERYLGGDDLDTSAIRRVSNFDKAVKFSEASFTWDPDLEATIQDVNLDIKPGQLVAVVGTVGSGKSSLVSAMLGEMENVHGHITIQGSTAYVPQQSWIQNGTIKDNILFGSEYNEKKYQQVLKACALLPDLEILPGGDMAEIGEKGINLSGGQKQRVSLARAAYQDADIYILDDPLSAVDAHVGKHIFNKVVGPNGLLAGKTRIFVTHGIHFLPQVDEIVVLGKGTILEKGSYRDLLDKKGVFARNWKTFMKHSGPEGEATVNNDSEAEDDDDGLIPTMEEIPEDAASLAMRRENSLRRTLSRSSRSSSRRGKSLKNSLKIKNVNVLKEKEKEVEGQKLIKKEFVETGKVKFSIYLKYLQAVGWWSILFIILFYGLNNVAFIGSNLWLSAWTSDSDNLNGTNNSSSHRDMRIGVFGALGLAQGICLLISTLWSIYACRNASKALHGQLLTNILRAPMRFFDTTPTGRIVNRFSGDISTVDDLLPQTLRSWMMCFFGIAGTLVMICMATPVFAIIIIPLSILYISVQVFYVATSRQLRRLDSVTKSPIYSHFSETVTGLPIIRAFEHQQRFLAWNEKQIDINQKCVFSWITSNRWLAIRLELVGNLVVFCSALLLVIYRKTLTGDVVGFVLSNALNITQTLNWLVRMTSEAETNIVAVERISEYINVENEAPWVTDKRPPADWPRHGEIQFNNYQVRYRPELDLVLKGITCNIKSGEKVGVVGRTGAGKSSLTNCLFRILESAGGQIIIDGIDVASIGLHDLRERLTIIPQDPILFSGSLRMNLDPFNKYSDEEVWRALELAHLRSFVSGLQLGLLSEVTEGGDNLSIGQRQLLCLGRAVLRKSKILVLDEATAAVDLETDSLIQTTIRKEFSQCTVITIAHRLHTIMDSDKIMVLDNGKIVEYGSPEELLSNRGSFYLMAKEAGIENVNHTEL
# Protocol: as §4, §5
# human MRP2 = human MRP2 (Homo sapiens, UniProt Q92887); assay: Vesicular transport assay, inside-out membrane vesicles expressing human MRP2; details: positive substrate 20 μM, 10 min; human MRP2
# human MRP2, sequence (Q92887 whole entry): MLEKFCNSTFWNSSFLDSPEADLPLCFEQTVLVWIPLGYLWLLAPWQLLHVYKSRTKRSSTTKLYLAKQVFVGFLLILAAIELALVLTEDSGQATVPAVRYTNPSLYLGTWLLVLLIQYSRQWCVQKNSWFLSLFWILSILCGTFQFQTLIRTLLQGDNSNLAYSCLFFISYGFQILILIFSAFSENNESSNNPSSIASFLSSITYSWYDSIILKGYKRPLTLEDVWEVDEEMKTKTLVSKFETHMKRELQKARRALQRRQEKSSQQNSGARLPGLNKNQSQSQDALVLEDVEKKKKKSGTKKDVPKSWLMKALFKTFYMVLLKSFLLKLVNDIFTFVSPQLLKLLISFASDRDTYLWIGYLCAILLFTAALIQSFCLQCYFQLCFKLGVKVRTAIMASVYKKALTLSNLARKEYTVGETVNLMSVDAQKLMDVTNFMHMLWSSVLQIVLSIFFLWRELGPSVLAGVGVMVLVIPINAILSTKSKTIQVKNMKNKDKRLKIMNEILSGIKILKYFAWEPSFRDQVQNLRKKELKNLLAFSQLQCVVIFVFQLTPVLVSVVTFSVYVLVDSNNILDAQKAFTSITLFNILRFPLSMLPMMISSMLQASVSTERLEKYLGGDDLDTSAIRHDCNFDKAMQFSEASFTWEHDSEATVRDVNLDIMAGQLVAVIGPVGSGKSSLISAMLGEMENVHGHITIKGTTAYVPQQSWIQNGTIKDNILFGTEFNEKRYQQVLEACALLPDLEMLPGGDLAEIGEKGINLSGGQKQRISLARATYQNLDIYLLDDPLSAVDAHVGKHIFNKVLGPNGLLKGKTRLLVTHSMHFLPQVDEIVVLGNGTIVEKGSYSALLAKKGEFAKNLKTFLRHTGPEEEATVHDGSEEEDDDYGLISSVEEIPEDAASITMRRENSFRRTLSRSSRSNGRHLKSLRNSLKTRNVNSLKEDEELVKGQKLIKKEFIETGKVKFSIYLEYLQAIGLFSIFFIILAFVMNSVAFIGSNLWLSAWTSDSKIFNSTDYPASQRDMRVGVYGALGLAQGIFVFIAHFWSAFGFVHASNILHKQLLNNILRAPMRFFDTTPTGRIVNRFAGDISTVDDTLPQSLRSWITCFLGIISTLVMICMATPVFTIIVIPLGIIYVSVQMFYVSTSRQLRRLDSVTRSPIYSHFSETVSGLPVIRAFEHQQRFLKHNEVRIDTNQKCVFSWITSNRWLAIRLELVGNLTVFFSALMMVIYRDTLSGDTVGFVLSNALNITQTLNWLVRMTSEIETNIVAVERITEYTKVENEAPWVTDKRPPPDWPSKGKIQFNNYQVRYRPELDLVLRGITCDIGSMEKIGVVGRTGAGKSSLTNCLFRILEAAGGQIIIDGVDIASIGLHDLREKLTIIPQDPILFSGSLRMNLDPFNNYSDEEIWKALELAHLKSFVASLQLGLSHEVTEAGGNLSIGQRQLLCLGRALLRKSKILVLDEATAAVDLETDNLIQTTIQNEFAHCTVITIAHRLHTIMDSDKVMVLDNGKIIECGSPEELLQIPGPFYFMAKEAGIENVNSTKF
# Protocol: as §4, §5
# human OATP1B1 = target: T3, human OATP1B1; assay: Cellular transport assay, HEK-293 cells expressing human OATP1B1; details: positive substrate 20 μM, 10 min; human OATP1B1
# Protocol: as §1, §2, §3
# OATP1B3 = target: T4, OATP1B3; assay: Cellular transport assay, HEK-293 cells expressing human OATP1B3; details: positive substrate 20 μM, 10 min; human OATP1B3
# Protocol: as §1, §2, §3
# rat Oatp1b2 = target: T5, rat Oatp1b2; assay: Cellular transport assay, HEK-293 cells expressing rat Oatp1b2; details: positive substrate 20 μM, 10 min; rat Oatp1b2
# Protocol: as §1, §2, §3
# human MDR1 = human MDR1 (Homo sapiens, UniProt P08183); assay: Vesicular transport assay, inside-out membrane vesicles expressing human MDR1; details: positive substrate 20 μM, 10 min; human MDR1
# human MDR1, sequence (P08183 whole entry): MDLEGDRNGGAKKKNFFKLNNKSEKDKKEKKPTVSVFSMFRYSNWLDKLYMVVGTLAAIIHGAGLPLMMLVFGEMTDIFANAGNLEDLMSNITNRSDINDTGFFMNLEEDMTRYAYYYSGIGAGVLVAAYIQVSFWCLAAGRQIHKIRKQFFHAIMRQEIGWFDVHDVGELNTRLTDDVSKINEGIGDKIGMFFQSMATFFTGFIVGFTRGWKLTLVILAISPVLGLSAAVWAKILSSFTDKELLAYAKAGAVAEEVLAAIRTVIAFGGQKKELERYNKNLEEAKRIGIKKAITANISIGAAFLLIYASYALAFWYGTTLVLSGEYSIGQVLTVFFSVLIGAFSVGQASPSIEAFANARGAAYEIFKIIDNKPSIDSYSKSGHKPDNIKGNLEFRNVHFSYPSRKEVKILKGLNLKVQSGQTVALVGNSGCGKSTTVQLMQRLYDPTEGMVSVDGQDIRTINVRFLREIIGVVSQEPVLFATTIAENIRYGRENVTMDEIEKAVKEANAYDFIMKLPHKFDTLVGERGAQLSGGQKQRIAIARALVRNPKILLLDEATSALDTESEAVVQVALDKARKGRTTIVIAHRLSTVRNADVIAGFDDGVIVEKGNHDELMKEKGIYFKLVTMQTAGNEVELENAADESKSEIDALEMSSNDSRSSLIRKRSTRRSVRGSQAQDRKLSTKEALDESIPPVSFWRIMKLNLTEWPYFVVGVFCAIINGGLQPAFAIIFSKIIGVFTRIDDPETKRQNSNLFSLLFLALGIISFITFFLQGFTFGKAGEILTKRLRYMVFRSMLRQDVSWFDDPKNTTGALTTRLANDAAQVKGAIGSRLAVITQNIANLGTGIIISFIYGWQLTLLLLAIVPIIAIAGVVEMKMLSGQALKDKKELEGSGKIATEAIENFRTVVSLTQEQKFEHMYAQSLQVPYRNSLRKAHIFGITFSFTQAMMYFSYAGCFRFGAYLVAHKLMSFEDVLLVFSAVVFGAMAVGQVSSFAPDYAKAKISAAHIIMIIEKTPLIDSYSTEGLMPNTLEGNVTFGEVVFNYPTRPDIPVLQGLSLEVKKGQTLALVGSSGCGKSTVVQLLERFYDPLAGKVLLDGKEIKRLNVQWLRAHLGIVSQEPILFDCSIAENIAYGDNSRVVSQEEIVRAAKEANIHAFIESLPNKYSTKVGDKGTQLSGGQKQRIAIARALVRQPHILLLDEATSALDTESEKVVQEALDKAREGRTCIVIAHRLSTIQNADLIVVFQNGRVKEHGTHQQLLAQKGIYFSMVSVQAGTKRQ
# Protocol: as §4, §5
# [1] = substrate: O=C(/C=C/c1ccc(O)c(O)c1)O[C@H](Cc1ccc(O)c(O)c1)C(=O)O; assay: cells, lysate or membranes named; details: other: human renal apical uptake OAT4; 5 min incubation, concentrations in Table 1; 37.0 °C
molecule,measurement,setting,value
"CCCCC[C@H](O)/C=C/[C@@H]1[C@@H](C/C=C\CCCC(=O)O)[C@@H](O)C[C@H]1O [PGF2α, prostaglandin F2α, reference compound]","TransportTC/TransportMC ratio, positive substrate",human OAT2,70.2 ± 6.6 (PGF2α)
same,"TransportTC/TransportMC ratio, positive substrate",rat Oat2,24.3 ± 3.3 (PGF2α)
"C[C@]12CC[C@@H]3c4ccc(O)cc4CC[C@H]3[C@@H]1CC[C@@H]2O[C@@H]1O[C@H](C(=O)O)[C@@H](O)[C@H](O)[C@H]1O [E217βG, estradiol-17β-D-glucuronide, reference compound]","TransportATP/TransportAMP ratio, positive substrate",human MRP3,6.79 ± 1.49 (E217βG)
same,"TransportATP/TransportAMP ratio, positive substrate",rat Mrp2,3.54 ± 0.32 (E217βG)
same,"TransportATP/TransportAMP ratio, positive substrate",human MRP2,7.23 ± 1.04 (E217βG)
"CC1(C)[C@@H](O[C@H]2O[C@H](C(=O)O)[C@@H](O)[C@H](O)[C@H]2O[C@@H]2O[C@H](C(=O)O)[C@@H](O)[C@H](O)[C@H]2O)CC[C@]2(C)[C@H]3C(=O)C=C4[C@@H]5C[C@@](C)(C(=O)O)CC[C@]5(C)CC[C@@]4(C)[C@]3(C)CC[C@@H]12 [GL, glycyrrhizin, reference compound]","TransportTC/TransportMC ratio, positive substrate",human OATP1B1,79.5 ± 1.3 (GL)
same,"TransportTC/TransportMC ratio, positive substrate",OATP1B3,33.1 ± 0.5 (GL)
same,"TransportTC/TransportMC ratio, positive substrate",rat Oatp1b2,121 ± 2 (GL)
same,"TransportATP/TransportAMP ratio, positive substrate",human MDR1,5.13 ± 0.87 (GL)
human OAT4 (Homo sapiens) (protein) MAFSKLLEQAGGVGLFQTLQVLTFILPCLMIPSQMLLENFSAAIPGHRCWTHMLDNGSAVSTNMTPKALLTISIPPGPNQGPHQCRRFRQPQWQLLDPNATATSWSEADTEPCVDGWVYDRSVFTSTIVAKWDLVCSSQGLKPLSQSIFMSGILVGSFIWGLLSYRFGRKPMLSWCCLQLAVAGTSTIFAPTFVIYCGLRFVAAFGMAGIFLSSLTLMVEWTTTSRRAVTMTVVGCAFSAGQAALGGLAFALRDWRTLQLAASVPFFAISLISWWLPESARWLIIKGKPDQALQELRKVARINGHKEAKNLTIEVLMSSVKEEVASAKEPRSVLDLFCVPVLRWRSCAMLVVNFSLLISYYGLVFDLQSLGRDIFLLQALFGAVDFLGRATTALLLSFLGRRTIQAGSQAMAGLAILANMLVPQDLQTLRVVFAVLGKGCFGISLTCLTIYKAELFPTPVRMTADGILHTVGRLGAMMGPLILMSRQALPLLPPLLYGVISIASSLVVLFFLPETQGLPLPDTIQDLESQKSTAAQGNRQEAVTVESTSL,Vmax,[1],4.75e-05 µmol/min/mg
same,Vmax/Km,[1],0.15 µL/min/mg
